According to patent publication US11058642B2, “Tablets with improved friability” (TOWER LABORATORIES LTD, priority 2013, dated 2021):

Key:
Type in all cases: physicochemical
[1] = Tablet hardness (Schuleuniger-4M tablet hardness tester); conditions: denture cleanser tablet (Table 1 formula, citric acid), additive 0.6%
Experimental: Tablets were compressed using ⅞″ round tooling on a Stokes F press. Compression force was adjusted to give the hardest possible tablet (limit set by capability of the press or by the appearance of tablet capping).
Hardness was measured using a Schuleuniger-4M tablet hardness tester.
Three (3) gram tablets were compressed using ⅞″ round tooling on a Stokes F press. Compression force was adjusted to give the hardest possible tablet (limit set by capability of the press or by appearance of tablet capping).
3.3 gram tablets were compressed using ⅞″ round tooling on a Stokes F press. As above, compression force was adjusted to give the hardest possible tablet (limit set by capability of the press or by appearance of tablet capping).
2.5 gram tablets were compressed using ⅞″ round tooling on a Stokes F press. As above, compression force was adjusted to give the hardest possible tablet (limit set by capability of the press or by appearance of tablet capping).

[2] = Tablet friability, modified USP-NF <1216> (Erweka TA, 10 tablets, 25 rpm; % unbroken tablets)
Experimental: Friability was measured in a manner similar to that described in the USP-NF, Chapter <1216>. The USP-NF method was modified in that the number of tablet used and the method of calculation were changed as indicated here. Ten (10) tablets were placed in an Erweka TA friability apparatus. The tablets were tumbled at 25 rpm for the indicated number of minutes. The percentage of unbroken tablets is reported.

[3] = Solubility in water of the tested materials; conditions: neat material
Text: In an attempt to understand what chemical properties of the tested materials are critical to improving friability, we looked at some of the physical properties of the tested materials.

Hardness [1]: 9.5 kp
Friability (% whole tablets) 2 min ([2]; denture cleanser tablet (Table 1 formula, citric acid), additive 0.6%, tumbled 2 min): 100 % whole tablets
Friability (% whole tablets) 4 min ([2]; denture cleanser tablet (Table 1 formula, citric acid), additive 0.6%, tumbled 4 min): 100 % whole tablets
Friability (% whole tablets) 6 min ([2]; denture cleanser tablet (Table 1 formula, citric acid), additive 0.6%, tumbled 6 min): 100 % whole tablets
Friability (% whole tablets) 8 min ([2]; denture cleanser tablet (Table 1 formula, citric acid), additive 0.6%, tumbled 8 min): 100 % whole tablets
Friability (% whole tablets) 10 min ([2]; denture cleanser tablet (Table 1 formula, citric acid), additive 0.6%, tumbled 10 min): 100 % whole tablets
Friability improvement ([2]; summary for denture cleanser tablet (Table 1 formula), material at 0.6%): Yes
Solubility in Water (w/w %) [3]: 100% w/w %
SMILES: OCC(O)CO [Glycerin]
